Here are results for 25 compounds from patent publication US20250066351A1, “PYRAZOLO[1,5-A]PYRIDIN-2,3-YL AMIDES AS KV7 CHANNEL ACTIVATORS” (Biohaven Therapeutics Ltd., priority 2022, published 2025).

The structures appear in SMILES notation.

The experiment concerns the target T1, hKv7.2/7.3 (Homo sapiens, UniProt O43525+O43526).
T1 construct: host or cells: HEK cells, tetracycline-inducible expression
Put plainly: Kv7.2/7.3 Activation Assay, QPatch planar patch-clamp single concentration screen. The note with it: increase in current over baseline, Kv7.2/Kv7.3 co-expressing HEK cells, compound concentration 3 μM, steady-state current at end of 2 s pulse to −30 mV. It is filed as cell-based. As for the experimental part: The ability of compounds to potentiate K-currents in Kv7.2/7.3 containing HEK cells was assessed using planar patch-clamp on the QPatch automated screening platform.
Cell Line: The hKv7.2/7.3 cell line was obtained from Chantest (Cleveland, OH 44128) cat. #CT6147. These HEK cells will express the Kv7.2/7.3 ion channels when induced.
Cell Culture: Cells were maintained in a media containing DMEM/F12; 50/50 (GIBCO cat. #11330), 10% Fetal Bovine Serum (FBS) (GIBCO cat. #26140), 100 units/mL Penicillin-Streptomycin (GIBCO cat. #15140), 0.005 mg/mL Blasticidin (INVIVOGEN cat. #ant-bl-1), 0.5 mg/mL Geneticin (GIBCO cat. #10131), 0.1 mg/mL Zeocin (GIBCO cat. #R25001). Cells used in the electrophysiology assay were maintained in a media without Blasticidin, Geneticin and Zeocin for 2 days and channel expression was induced by adding tetracycline (BIOLINE cat. #BIO-87030) at a final concentration of […]. Cells were grown in T-175 flask to ˜75% confluency. Currents were recorded 24 hours after channel induction.
Compound Plates: Test compounds were prepared by performing serial dilutions on a Biomek NX^P (BECKMAN COULTER). Final dilutions were made in external recording solution with a final DMSO concentration of 0.1% DMSO. For single concentration screens each plate had 10 μM retigabine as a positive control and 0.1% DMSO as a negative control.
Electrophysiology: On the day of the experiment cells were washed with Hank's Balanced Salt Solution (HBBS) (GIBCO cat. #14175) and harvested with Tryple (GIBCO cat. #12604). Cells were then centrifuged at 2000 rpm for 5 minutes and resuspended in CHO—S-SFM (GIBCO cat. #12052) at […]. Cells were stirred for 30 minutes before experiments were started. External recording solution contained (in mM): NaCl (145), KCl (4), CaCl2 (2), MgCl2 (1), HEPES (10) and Glucose (10); pH was adjusted to 7.4 with NaOH and the osmolarity was adjusted to 300-305 mOsM with sucrose if necessary. Internal solution contained (in mM): KCl (125), KF (10), EGTA (5), Na2ATP (5), MgCl2 (3.2), HEPES (5); pH was adjusted to 7.2 with KOH and the osmolarity was adjusted to 298-302 mOsM with sucrose.
Potassium channel activity was measured on the QPatch HTX (Sophion Bioscience) using QPlates with 48-wells/plate. Each cell was taken as an independent experiment and only one compound was tested per well. Potassium channel activity was elicited by holding at −80 mV and stepping to −30 mV for 2 s followed by a 100 ms pulse to −120 mV.
Single concentration screen: Baseline conditions were obtained by recording 5 sweeps in the external solution only, this was repeated for three applications of the external solution. The effect of test compounds on elicited current was then assessed by recording 5 sweeps in the presence of a 3 μM compound solution. The steady-state current at the end of the 2 s pulse to −30 mV was measured to determine the fold increase from baseline.
In the case of `COc1ccn2nc(NC(=O)CC(C)(C)O)c(C3CCC3)c2c1` [Example 16, N-(3-cyclobutyl-5-methoxypyrazolo[1,5-a]pyridin-2-yl)-3-hydroxy-3-methylbutanamide], the “QPatch Kv7.2/7.3 Activity” value was “+/− (1.2-1.99-fold (+/−))”.
In the case of `COc1ccn2nc(NC(=O)CC(C)(O)C3CCCC3)c(C3CCC3)c2c1` (stereo not shown) [Example 26, N-(3-cyclobutyl-5-methoxypyrazolo[1,5-a]pyridin-2-yl)-3-cyclopentyl-3-hydroxybutanamide], the “QPatch Kv7.2/7.3 Activity” value is listed as “+ (2.0-3.99 (+))”.
Then `CC(C)(C)CC(=O)Nc1nn2ccccc2c1C1CCC1` [Example 1, N-(3-cyclobutylpyrazolo[1,5-a]pyridin-2-yl)-3,3-dimethylbutanamide], with “+ (2.0-3.99 (+))”; and `C[C@](O)(CC(=O)Nc1nn2ccc(Cl)cc2c1-c1ccc(F)cc1)c1ccccc1` [Example 71, (S)-N-(5-chloro-3-(4-fluorophenyl)pyrazolo [1,5-a]pyridin-2-yl)-3-hydroxy-3-phenylbutanamide], with “+ (2.0-3.99 (+))”; and `CC(C)(O)CC(=O)Nc1nn2ccc(C(F)(F)F)cc2c1-c1ccc(Cl)nc1` [Example 45, N-(3-(6-chloropyridin-3-yl)-5-(trifluoromethyl)pyrazolo [1,5-a]pyridin-2-yl)-3-hydroxy-3-methylbutanamide], with “+/− (1.2-1.99-fold (+/−))”.
As for `Cc1ccc(-c2c(NC(=O)C[C@@](C)(O)c3ccccn3)nn3ccc(C(F)(F)F)cc23)cc1` [Example 40, (R)-3-hydroxy-3-(pyridin-2-yl)-N-(3-(p-tolyl)-5-(trifluoromethyl)pyrazolo[1,5-a]pyridin-2-yl)butanamide], the entry is “+ (2.0-3.99 (+))”.
Then `C[C@](O)(CC(=O)Nc1nn2c(Br)cccc2c1C1CCC1)c1ccccc1` [Example 33, (S)-N-(7-bromo-3-cyclobutylpyrazolo[1,5-a]pyridin-2-yl)-3-hydroxy-3-phenylbutanamide], with “+ (2.0-3.99 (+))”; and `CC(C)(O)CC(=O)Nc1nn2ccc(C(F)(F)F)cc2c1C1CCC1` [Example 10, N-(3-cyclobutyl-5-(trifluoromethyl)pyrazolo [1,5-a]pyridin-2-yl)-3-hydroxy-3-methylbutanamide], with “+ (2.0-3.99 (+))”; and `CC(C)(C)CC(=O)Nc1nn2ccc(C3(O)CCC3)cc2c1C1CCC1` [Example 74, N-(3-cyclobutyl-5-(1-hydroxycyclobutyl)pyrazolo[1,5-a]pyridin-2-yl)-3,3-dimethylbutanamide], with “++ (4.0-5.99 (++))”.
Consider `CC(C)(C)CC(=O)Nc1nn2ccc(Cl)cc2c1-c1ccc(F)cc1` [Example 82, N-(5-chloro-3-(4-fluorophenyl)pyrazolo [1,5-a]pyridin-2-yl)-3,3-dimethylbutanamide], for which the “QPatch Kv7.2/7.3 Activity” value is recorded as “+++ (>6-fold (+++))”.
On to `Cn1cc(-c2c(NC(=O)CC(C)(C)O)nn3ccc(C(F)(F)F)cc23)cn1` [Example 52, 3-hydroxy-3-methyl-N-(3-(1-methyl-1H-pyrazol-4-yl)-5-(trifluoromethyl)pyrazolo [1,5-a]pyridin-2-yl)butanamide], for which the “QPatch Kv7.2/7.3 Activity” value was “− (<1.2-fold (−))”.
On to `CC(C)(O)CC(=O)Nc1nn2ccccc2c1C1CCC1` [Example 9, N-(3-cyclobutylpyrazolo[1,5-a]pyridin-2-yl)-3-hydroxy-3-methylbutanamide], for which the “QPatch Kv7.2/7.3 Activity” value is reported as “− (<1.2-fold (−))”.
For `CC(C)(C)CC(=O)Nc1nn2ccc(C#N)cc2c1-c1ccc(F)cc1` [Example 59, N-(5-cyano-3-(4-fluorophenyl)pyrazolo [1,5-a]pyridin-2-yl)-3,3-dimethylbutanamide], the “QPatch Kv7.2/7.3 Activity” value is “+ (2.0-3.99 (+))”.
Then `CC(C)(C)OC(=O)Nc1nn2ccc(Br)cc2c1C1CCC1` [Example 69, tert-butyl (5-bromo-3-cyclobutylpyrazolo[1,5-a]pyridin-2-yl)carbamate], with “+ (2.0-3.99 (+))”; and `CC(C)(O)CC(=O)NNc1nn2ccc(C(F)(F)F)cc2c1-c1ccc(F)cc1` [Example 85, N′-(3-(4-fluorophenyl)-5-(trifluoromethyl)pyrazolo [1,5-a]pyridin-2-yl)-3-hydroxy-3-methylbutanehydrazide], with “− (<1.2-fold (−))”; and `C[C@](O)(CC(=O)Nc1nn2ccc(C(F)(F)F)cc2c1-c1ccc(F)cc1)c1ccccc1` [Example 32, (S)-N-(3-(4-fluorophenyl)-5-(trifluoromethyl)pyrazolo [1,5-a]pyridin-2-yl)-3-hydroxy-3-phenylbutanamide], with “+ (2.0-3.99 (+))”.
Consider `CC(C)(O)CC(=O)Nc1nn2ccc(C(F)(F)F)cc2c1-c1ccccc1F` [Example 46, N-(3-(2-fluorophenyl)-5-(trifluoromethyl)pyrazolo [1,5-a]pyridin-2-yl)-3-hydroxy-3-methylbutanamide], for which the “QPatch Kv7.2/7.3 Activity” value is “+/− (1.2-1.99-fold (+/−))”.
As for `CC(C)(O)CC(=O)Nc1nn2ccc(Br)cc2c1C1CCC1` [Example 12, N-(5-bromo-3-cyclobutylpyrazolo[1,5-a]pyridin-2-yl)-3-hydroxy-3-methylbutanamide], the entry is “+ (2.0-3.99 (+))”.
Consider `O=C(CC(C(F)(F)F)C(F)(F)F)Nc1nn2ccccc2c1C1CCC1` [Example 4, N-(3-cyclobutylpyrazolo[1,5-a]pyridin-2-yl)-4,4,4-trifluoro-3-(trifluoromethyl) butanamide], for which the “QPatch Kv7.2/7.3 Activity” value is “+/− (1.2-1.99-fold (+/−))”.
Turning to `C[C@@](O)(CC(=O)Nc1nn2ccc(C(F)(F)F)cc2c1C1CCC1)c1ccccn1` [Example 35, (R)-N-(3-cyclobutyl-5-(trifluoromethyl)pyrazolo [1,5-a]pyridin-2-yl)-3-hydroxy-3-(pyridin-2-yl)butanamide], the “QPatch Kv7.2/7.3 Activity” value is recorded as “+ (2.0-3.99 (+))”.
For `CC(C)(O)CC(=O)Nc1nn2ccc(C(F)(F)F)cc2c1-c1ccc(F)c(F)c1` [Example 55, N-(3-(3,4-difluorophenyl)-5-(trifluoromethyl)pyrazolo [1,5-a]pyridin-2-yl)-3-hydroxy-3-methylbutanamide], the “QPatch Kv7.2/7.3 Activity” value is “+ (2.0-3.99 (+))”.
In the case of `CC(C)(O)CC(=O)Nc1nn2ccc(C(F)(F)F)cc2c1-c1cccc(Cl)c1` [Example 48, N-(3-(3-chlorophenyl)-5-(trifluoromethyl)pyrazolo [1,5-a]pyridin-2-yl)-3-hydroxy-3-methylbutanamide], the “QPatch Kv7.2/7.3 Activity” value was “+ (2.0-3.99 (+))”.
As for `O=C(CC1(O)CCC1)Nc1nn2ccc(C(F)(F)F)cc2c1-c1ccc(F)cc1` [Example 22, N-(3-(4-fluorophenyl)-5-(trifluoromethyl)pyrazolo [1,5-a]pyridin-2-yl)-2-(1-hydroxycyclobutyl) acetamide], the entry is “+ (2.0-3.99 (+))”; as for `CC(O)(CC(=O)Nc1nn2ccc(C#N)cc2c1C1CCC1)c1ccccc1` (stereo not shown) [Example 28, N-(5-cyano-3-cyclobutylpyrazolo[1,5-a]pyridin-2-yl)-3-hydroxy-3-phenylbutanamide], “+/− (1.2-1.99-fold (+/−))”; as for `CC(C)[C@H](C)C(=O)Nc1nn2ccccc2c1C1CCC1` [Example 6, (S)-N-(3-cyclobutylpyrazolo[1,5-a]pyridin-2-yl)-2,3-dimethylbutanamide], “+ (2.0-3.99 (+))”.
